Test results reported in patent publication US6753010B2, “Soft gelatin capsule containing angelica oil” (Shandong Luye Phamaceutical Co., Ltd., priority 2000, dated 2004).

Assay: Influence of temperature on ligustilide content in angelica essential oil (gas chromatography, internal standard diethyl phthalate)
Type: physicochemical
Details: for Content of ligustilide: in angelica essential oil, sealed vial
Method: Gas chromatograph (Shimadzu GC-14B); Diethyl phthalate (Shanghai First Reagents Factory, purity is 99.7% tested by gas chromatography with area normalization method); angelica essential oil (991007).
Test group: Five portions of angelica essential oil (30 μl each) are placed separately in five 7 ml-sealing vials numbered with 0, 1, 2, 3 and 4, weighed accurately and sealed. The vials are laid in an oven (100° C.) and the samples are taken out of the oven after 0, 1, 2, 3 and 4 hours respectively. Anabout 16 μl of diethyl phthalate as the internal standard is added. Then the samples are weighed accurately and diluted with ca. 1 ml of ethyl alcohol additionally. According to the method in the item of ? Purity Test ? under “Protocol and Remarks of the Quality standard for Angelica essential oil” the content of ligustilide is determined.
Control group: Five portions of angelica essential oil (30 μl each) are placed separately in five 7 ml-sealing vials numbered with 0′, 1′, 2′, 3′ and 4′, weighed accurately and sealed. The vials are laid aside under room temperature of 20° C. and about 16 μl of diethyl phthalate as internal standard is added after 0, 1, 2, 3 and 4 hours respectively. […] with ca. 1 ml of ethyl alcohol additionally. According to the method in the item of ? Purity Test ? under “Protocol and Remarks of the Quality standard for Angelica essential oil”, the content of ligustilide is determined.

In the case of CCC/C=C1\OC(=O)C2=C1CCC=C2 [ligustilide], the “Stability of ligustilide content (in words)” value (in angelica essential oil under room temperature (20° C.)) is reported as “relatively stable”, the “Stability of ligustilide content (in words)” value (in angelica essential oil under temperature of 100° C.) is reported as “decreases gradually” and the Content of ligustilide (higher temperature (100° C.), 0 hour) is reported as 55.50%. The Content of ligustilide (higher temperature (100° C.), 1 hour) was 41.89%, the Content of ligustilide (higher temperature (100° C.), 2 hours) was 32.74% and the Content of ligustilide (higher temperature (100° C.), 3 hours) was 21.89%. For the same molecule, the Content of ligustilide (higher temperature (100° C.), 4 hours) was 12.00%, the Content of ligustilide (room temperature (20° C.), 0 hour) was 55.5% and the Content of ligustilide (room temperature (20° C.), 1 hour) was 56.01%. For the same molecule, the Content of ligustilide (room temperature (20° C.), 2 hours) was 56.66%, the Content of ligustilide (room temperature (20° C.), 3 hours) was 55.78% and the Content of ligustilide (room temperature (20° C.), 4 hours) was 55.39%.
